Results on three molecules are retold here after paper PMC12155760, “A cobalamin-dependent pathway of choline demethylation from the human gut acetogen Eubacterium limosum [drawing 1]” (The Journal of Biological Chemistry, 2025).

The subject of data set [1] is MthB. The data set can be described thus: UV/Vis, methyl-Co(III)-MthC formation at […] nm. The conditions noted are these: co-substrate 30 μM Co(I)-MthC, RamQ, Ti(III)citrate, 2 mM ATP, MOPS pH 7.2, 37 °C; read-out: apparent KM. In kind it is biochemical, Eubacterium limosum.
Data set [2] has as its target T1, MthA (Eubacterium limosum, UniProt A0AAC9QR60).
T1 construct: gene B2M23_01055
T1 sequence (A0AAC9QR60 1-264): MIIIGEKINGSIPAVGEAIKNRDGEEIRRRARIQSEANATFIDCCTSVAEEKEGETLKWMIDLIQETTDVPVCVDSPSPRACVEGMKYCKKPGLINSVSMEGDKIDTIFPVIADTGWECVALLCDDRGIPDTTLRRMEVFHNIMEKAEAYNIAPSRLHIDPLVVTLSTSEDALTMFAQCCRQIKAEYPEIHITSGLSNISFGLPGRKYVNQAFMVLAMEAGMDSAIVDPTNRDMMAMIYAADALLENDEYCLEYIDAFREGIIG
Briefly: HPLC, methyl-THF formation. In kind it is biochemical. The note with it: 5 mM THF, MthB, MthC, RamQ, Ti(III)citrate, ATP, 50 mM phosphocholine, MOPS pH 7.0, 24 °C.

Substrate in data set [3]: C[N+](C)(C)CCO
The data set can be described thus: purified protein. In kind it is biochemical, Eubacterium limosum. The note with it: 5 mM ATP, 10 mM MgCl2, 100 mM KCl, glycine-NaOH pH 9.0.

For `C[N+](C)(C)CCOP(=O)([O-])O` [phosphocholine], in data set [1], the Km (usually the substrate concentration at which the rate is half of its maximum) turned out to be 11.3 ± 1.9 mM. As to `Nc1nc2c(c(=O)[nH]1)N[C@@H](CNc1ccc(C(=O)N[C@@H](CCC(=O)O)C(=O)O)cc1)CN2` [THF], in data set [2], the “HPLC, methyl-THF formation” value was “the further addition of MthA allowed the methylation of THF with phosphocholine as assayed by HPLC”.

B1: MthK (Eubacterium limosum) (protein)
chain: MVDGKFIEMQTEIMKNYPPANAQALLNIFNAASGMQEYLDNVLAKTRESYLYTQLRDLVENYYDIGTLLDVYQIFGGYINTSFGIYTEKNGKKQTWFVRKYKNGKELESLLFEHSMLKYAKENGFSYGAVPIPAKDGKTYHEVTETTTEGETKSYFAVFNFVGGKAHYDWIPNWANAGVADLTVISAAKSLAEFHNSTRGFDPEGRHGDNIMDNEDITVNEIIRKFPKTLKEYRKSYAEAGFENVYTEYYDANYDYFAKMCERSVIPDVDYDTMVSNVCHCDFHPGNFKYLDNGEVCGSFDYDMAKIDSRLFELGLAIHYCFSSWLSDTNGIINLDRASLFVKTYDEELHKAGGIEPLTDIEKKYLYEVTVQGALYDLGWCSSACVYDSTLDPYEYLFYTQHFVACLKWLEANEAAFRKAFD
As for B1, in data set [3], the Km stood at 0.0028 ± 0.0002 mM and the kcat (usually the maximal rate divided by the concentration of active sites) turned out to be 13.8 ± 0.28 s⁻¹.
